Assay results reported in patent US12611438B2, “Antiviral composition comprising a nucleolin-binding peptide” (ANYGEN CO., LTD., priority 2021, dated 2026).
Like-named read-outs stand apart in the source and are kept apart here.

Legend:
SARS-COV-2 = settings: 5 animals
Procedure: Syrian hamsters (Female, 11 weeks, Raon Bio Co., Ltd.) were infected with SARS-COV-2 (2×10^5 pfu/mL) through intranasal irrigation.
Body weight was measured on the day of infection, the second day after infection, and the fourth day after infection.
Autopsy was measured on the fourth day after infection.

influenza A virus = assay type: in vivo, C57BL/6 mice; settings: 0.04, 0.2, and 1.00 mg/kg i.p. once a day for 5 days, observed 16 days
in vitro [1] = assay type: cell-based
Procedure: In order to determine the half maximal cytotoxic concentration (CC50) of AGM-330, confluent A549, MDCK, Vero E6, MA104, MARC-145, and LLC-PK cells grown in 96-well plates were treated with dilutions of NCL-targeting peptide ligands (AGM-330d-mCPP, AGM-330t-mCPP) prepared from a low concentration to […], followed by incubation for 24 hours. After removing each culture medium, 200 μL of a 3-(4,5-dimethylthiazol-2-yl)-2,5-diphenyl tetrazolium bromide (MTT) solution was added thereto, followed by incubation in a 5% CO2 incubator at 36° C. for 4 hours. Then, 150 μL of a DMSO solution was added to each well and then incubated at 20° C. Then, the optical density (OD) was measured at a wavelength of 570 nm with an enzyme-linked immunosorbent assay (ELISA) reader (Table 6).

in vitro [2] = settings: African green monkey

For `CC[C@H](C)[C@H](NC(=O)[C@H](CCCNC(=N)N)NC(=O)CCN1C(=O)CC(SC[C@H](NC(=O)[C@H](CCCCNC(=O)CCOCCOCCOCCOCCOCCOCCNC(=O)[C@H](CCCCN)NC(=O)[C@H](CC(C)C)NC(=O)[C@H](Cc2ccc(O)cc2)NC(=O)[C@@H](NC(=O)[C@H](CCSC)NC(=O)[C@H](C)NC(=O)CNC(=O)[C@H](Cc2c[nH]cn2)NC(=O)[C@@H](N)CCCNC(=N)N)C(C)C)NC(=O)CCOCCOCCOCCOCCOCCOCCNC(=O)[C@H](CCCCN)NC(=O)[C@H](CC(C)C)NC(=O)[C@H](Cc2ccc(O)cc2)NC(=O)[C@@H](NC(=O)[C@H](CCSC)NC(=O)[C@H](C)NC(=O)CNC(=O)[C@H](Cc2c[nH]cn2)NC(=O)[C@@H](N)CCCNC(=N)N)C(C)C)C(=O)O)C1=O)C(=O)N[C@@H](CCSC)C(=O)N[C@@H](CCCNC(=N)N)C(=O)N[C@H](C(=O)N[C@@H](CC(C)C)C(=O)N[C@@H](CCCNC(=N)N)C(=O)N[C@H](C(=O)N[C@@H](CC(C)C)C(=O)N[C@@H](CCCCN)C(=O)N[C@@H](CC(C)C)C(=O)N[C@@H](C)C(=O)N[C@@H](CCCNC(=N)N)C(=O)O)[C@@H](C)CC)[C@@H](C)CC` (some centres unmarked) [AGM-330d-mCPP], the “Lung, Inflammatory cell, intestinal: Minimal, incidence” value (SARS-COV-2; AGM-2: 2 mg/kg) was 0, the “Lung, Inflammatory cell, intestinal: Moderate, incidence” value (SARS-COV-2; AGM-2: 2 mg/kg) was 3 and the “Lung, Inflammatory cell, intestinal: Normal, incidence” value (SARS-COV-2; AGM-2: 2 mg/kg) was 0. The “Lung, Inflammatory cell, intestinal: Severe, incidence” value (SARS-COV-2; AGM-2: 2 mg/kg) was 1, the “Lung, Neutrophilic/lymphocytic cell, alveolar: Mild, incidence” value (SARS-COV-2; AGM-2: 2 mg/kg) was 3 and the “Lung, Neutrophilic/lymphocytic cell, alveolar: Minimal, incidence” value (SARS-COV-2; AGM-2: 2 mg/kg) was 2. The “Lung, Neutrophilic/lymphocytic cell, alveolar: Moderate, incidence” value (SARS-COV-2; AGM-2: 2 mg/kg) was 0, the “Lung, Neutrophilic/lymphocytic cell, alveolar: Normal, incidence” value (SARS-COV-2; AGM-2: 2 mg/kg) was 0 and the “Lung, Proteinaceous debris: Mild, incidence” value (SARS-COV-2; AGM-2: 2 mg/kg) was 2. The “Lung, Proteinaceous debris: Minimal, incidence” value (SARS-COV-2; AGM-2: 2 mg/kg) was 3, the “Lung, Proteinaceous debris: Moderate, incidence” value (SARS-COV-2; AGM-2: 2 mg/kg) was 0 and the “Lung, Proteinaceous debris: Normal, incidence” value (SARS-COV-2; AGM-2: 2 mg/kg) was 0. The “Lung, Proteinaceous debris: Severe, incidence” value (SARS-COV-2; AGM-2: 2 mg/kg) was 0, the “Lung, Alveolar wall thickening: Mild, incidence” value (SARS-COV-2; AGM-3: 6 mg/kg) was 3 and the “Lung, Alveolar wall thickening: Minimal, incidence” value (SARS-COV-2; AGM-3: 6 mg/kg) was 2. The “Lung, Alveolar wall thickening: Moderate, incidence” value (SARS-COV-2; AGM-3: 6 mg/kg) was 0, the “Lung, Alveolar wall thickening: Normal, incidence” value (SARS-COV-2; AGM-3: 6 mg/kg) was 0 and the “Lung, Alveolar wall thickening: Severe, incidence” value (SARS-COV-2; AGM-3: 6 mg/kg) was 0. The “Lung, Hemorrhage: Mild, incidence” value (SARS-COV-2; AGM-3: 6 mg/kg) was 0, the “Lung, Hemorrhage: Minimal, incidence” value (SARS-COV-2; AGM-3: 6 mg/kg) was 5 and the “Lung, Hemorrhage: Moderate, incidence” value (SARS-COV-2; AGM-3: 6 mg/kg) was 0. For the same compound, the “Lung, Hemorrhage: Normal, incidence” value (SARS-COV-2; AGM-3: 6 mg/kg) was 0, the “Lung, Hemorrhage: Severe, incidence” value (SARS-COV-2; AGM-3: 6 mg/kg) was 0 and the “Lung, Hyaline membrane: Mild, incidence” value (SARS-COV-2; AGM-3: 6 mg/kg) was 1. The “Lung, Hyaline membrane: Minimal, incidence” value (SARS-COV-2; AGM-3: 6 mg/kg) was 4, the “Lung, Hyaline membrane: Moderate, incidence” value (SARS-COV-2; AGM-3: 6 mg/kg) was 0 and the “Lung, Hyaline membrane: Normal, incidence” value (SARS-COV-2; AGM-3: 6 mg/kg) was 0. For the same compound, the “Lung, Hyaline membrane: Severe, incidence” value (SARS-COV-2; AGM-3: 6 mg/kg) was 0, the “Lung, Inflammatory cell, intestinal: Mild, incidence” value (SARS-COV-2; AGM-3: 6 mg/kg) was 3 and the “Lung, Inflammatory cell, intestinal: Minimal, incidence” value (SARS-COV-2; AGM-3: 6 mg/kg) was 2. The “Lung, Inflammatory cell, intestinal: Moderate, incidence” value (SARS-COV-2; AGM-3: 6 mg/kg) was 0, the “Lung, Inflammatory cell, intestinal: Normal, incidence” value (SARS-COV-2; AGM-3: 6 mg/kg) was 0 and the “Lung, Inflammatory cell, intestinal: Severe, incidence” value (SARS-COV-2; AGM-3: 6 mg/kg) was 0. The “Lung, Neutrophilic/lymphocytic cell, alveolar: Mild, incidence” value (SARS-COV-2; AGM-3: 6 mg/kg) was 0, the “Lung, Neutrophilic/lymphocytic cell, alveolar: Minimal, incidence” value (SARS-COV-2; AGM-3: 6 mg/kg) was 5 and the “Lung, Neutrophilic/lymphocytic cell, alveolar: Moderate, incidence” value (SARS-COV-2; AGM-3: 6 mg/kg) was 0. For the same compound, the “Lung, Neutrophilic/lymphocytic cell, alveolar: Normal, incidence” value (SARS-COV-2; AGM-3: 6 mg/kg) was 0, the “Lung, Proteinaceous debris: Mild, incidence” value (SARS-COV-2; AGM-3: 6 mg/kg) was 1 and the “Lung, Proteinaceous debris: Minimal, incidence” value (SARS-COV-2; AGM-3: 6 mg/kg) was 4. The “Lung, Proteinaceous debris: Moderate, incidence” value (SARS-COV-2; AGM-3: 6 mg/kg) was 0, the “Lung, Proteinaceous debris: Normal, incidence” value (SARS-COV-2; AGM-3: 6 mg/kg) was 0 and the “Lung, Proteinaceous debris: Severe, incidence” value (SARS-COV-2; AGM-3: 6 mg/kg) was 0. The survival rate (influenza A virus) was “significantly improved survival rate”, the CC50 at 24 h (in vitro [1]; African green monkey, MA-104, MTT) was 99.9 µM and the CC50 at 24 h (in vitro [1]; African green monkey, MARC-145, MTT) was 98 µM. For the same compound, the CC50 at 24 h (in vitro [1]; African green monkey, Vero E6, MTT) was 108 µM, the CC50 at 24 h (in vitro [1]; human, A549, MTT) was 102 µM and the CC50 at 24 h (in vitro [1]; human, HRT-18, MTT) was 89.5 µM. For the same compound, the CC50 at 24 h (in vitro [1]; pig, LLC-PK, MTT) was 101 µM and the CC50 at 24 h (in vitro [2]) was > 20 µM.
